Experimental data as given in patent publication US8945632B2, “Methods and compositions for inhibiting the nuclear factor κB pathway” (Ben Gurion University of the Negev R&D Authority, priority 2010, dated 2015).

How the values were obtained:
L428 cells = test: XTT cell survival, NUP combined with chemotherapeutic drugs; assay type: cell-based, human; details: Bortezomib 0.9 ng/ml, same conditions, data not shown
[1] = tested on: B16 melanoma cells in C57BL/6 mice; test: Experimental lung metastasis of B16 melanoma cells; assay type: in vivo; details: NUP 20 mg/kg or cisplatin 4 mg/kg, day 0 to day 14, lungs excised day 18
Procedure: C57BL/6 mice were treated with an intravenous injection of B16 melanoma cells (3*10^5 cells/[…]). […] Control animals received only vehicle. Lungs were excised on day 18. Metastatic nodules are black (FIG. 11).

Row | SMILES | Combined effect on cell survival with NUP (L428 cells) | Number of lung metastatic nodules, single agent [1]
1 | CC(C)C[C@H](NC(=O)[C@H](Cc1ccccc1)NC(=O)c1cnccn1)B(O)O [Bortezomib] | additive to NUP and not synergistic | –
2 | N.N.[Cl][Pt][Cl] [cisplatin] | – | reduced the number of lung metastatic nodules
